From ChEMBL document CHEMBL1671722, “Comparative in vitro activity profiles of novel bis-indole antibacterials against gram-positive and gram-negative clinical isolates” (Antimicrob Agents Chemother, 2010)

Assays:
Format in all cases: functional
Haemophilus influenzae = assay: Antimicrobial activity against Haemophilus influenzae by broth microdilution method
Acinetobacter baumannii [1] = assay: Antimicrobial activity against multiple dug-resistant Acinetobacter baumannii by broth microdilution method
Escherichia coli = assay: Antimicrobial activity against Escherichia coli by broth microdilution method
Pseudomonas aeruginosa = assay: Antimicrobial activity against Pseudomonas aeruginosa by broth microdilution method
Proteus mirabilis = assay: Antimicrobial activity against Proteus mirabilis by broth microdilution method
Burkholderia cepacia = assay: Antimicrobial activity against Burkholderia cepacia by broth microdilution method
Klebsiella pneumoniae [2] = assay: Antimicrobial activity against Klebsiella pneumoniae by broth microdilution method
Serratia marcescens = assay: Antimicrobial activity against Serratia marcescens by broth microdilution method
Acinetobacter baumannii [3] = assay: Antimicrobial activity against Acinetobacter baumannii by broth microdilution method
Klebsiella pneumoniae [4] = assay: Antimicrobial activity against ESBL-production Klebsiella pneumoniae by broth microdilution method
Streptococcus agalactiae = assay: Antimicrobial activity against Streptococcus agalactiae by broth microdilution method
Enterococcus faecium [5] = assay: Antimicrobial activity against vancomycin-susceptible Enterococcus faecium by broth microdilution method
Staphylococcus aureus [6] = assay: Antimicrobial activity against methicillin-susceptible Staphylococcus aureus by broth microdilution method
[7] = tested on: Staphylococcus epidermidis; assay: Antimicrobial activity against methicillin-susceptible Staphylococcus epidermidis by broth microdilution method
Staphylococcus aureus [8] = assay: Antimicrobial activity against methicillin-resistant Staphylococcus aureus by broth microdilution method
Streptococcus pneumoniae [9] = assay: Antimicrobial activity against penicillin-intermediate Streptococcus pneumoniae by broth microdilution method
Enterococcus faecium [10] = assay: Antimicrobial activity against vancomycin-resistant Enterococcus faecium by broth microdilution method
[11] = tested on: Staphylococcus epidermidis; assay: Antimicrobial activity against methicillin-resistant Staphylococcus epidermidis by broth microdilution method
Enterococcus faecalis [12] = assay: Antimicrobial activity against vancomycin-resistant Enterococcus faecalis by broth microdilution method
Enterococcus faecalis [13] = assay: Antimicrobial activity against vancomycin-susceptible Enterococcus faecalis by broth microdilution method
Streptococcus pneumoniae [14] = assay: Antimicrobial activity against penicillin-resistant Streptococcus pneumoniae by broth microdilution method
Streptococcus pneumoniae [15] = assay: Antimicrobial activity against penicillin-susceptible Streptococcus pneumoniae by broth microdilution method
Clostridioides difficile = assay: Antimicrobial activity against Clostridium difficile by broth microdilution method

C[C@H]1COc2c(N3CCN(C)CC3)c(F)cc3c(=O)c(C(=O)O)cn1c23.C[C@H]1COc2c(N3CCN(C)CC3)c(F)cc3c(=O)c(C(=O)O)cn1c23.O [LEVOFLOXACIN]
0.08 µg/mL: MIC (Haemophilus influenzae)
0.015 µg/mL: MIC50 (Haemophilus influenzae)
0.06 µg/mL: MIC90 (Haemophilus influenzae)

CN(C)c1cc(NC(=O)CNC(C)(C)C)c(O)c2c1C[C@H]1C[C@H]3[C@H](N(C)C)C(O)=C(C(N)=O)C(=O)[C@@]3(O)C(O)=C1C2=O [TIGECYCLINE]
> 2 µg/mL: MIC90 (Klebsiella pneumoniae [4])
0.12 µg/mL: MIC (Escherichia coli) | MIC50 (Escherichia coli)
> 8 µg/mL: MIC50 (Burkholderia cepacia) | MIC90 (Burkholderia cepacia) | MIC90 (Klebsiella pneumoniae [2]) | MIC90 (Acinetobacter baumannii [3])
1 µg/mL: MIC50 (Klebsiella pneumoniae [2])
0.5 µg/mL: MIC50 (Acinetobacter baumannii [1]) | MIC50 (Pseudomonas aeruginosa) | MIC50 (Proteus mirabilis) | MIC50 (Serratia marcescens)
0.25 µg/mL: MIC90 (Escherichia coli) | MIC50 (Acinetobacter baumannii [3])
0.03 µg/mL: MIC50 (Klebsiella pneumoniae [4])
2 µg/mL: MIC90 (Acinetobacter baumannii [1]) | MIC90 (Serratia marcescens)
> 32 µg/mL: MIC90 (Pseudomonas aeruginosa) | MIC90 (Proteus mirabilis)

CC(=O)NC[C@H]1CN(c2ccc(N3CCOCC3)c(F)c2)C(=O)O1 [LINEZOLID]
4 µg/mL: MIC90 (Enterococcus faecium [5]) | MIC90 (Staphylococcus aureus [6]) | MIC90 (Staphylococcus aureus [8])
2 µg/mL: MIC90 (Streptococcus agalactiae) | MIC (Enterococcus faecium [5]) | MIC50 (Enterococcus faecium [5]) | MIC50 (Staphylococcus aureus [6]) | MIC90 [7] | MIC50 (Staphylococcus aureus [8]) | MIC50 (Enterococcus faecium [10]) | MIC90 (Enterococcus faecium [10]) | MIC90 [11] | MIC50 (Enterococcus faecalis [13]) | MIC90 (Enterococcus faecalis [13]) | MIC90 (Streptococcus pneumoniae [15])
1 µg/mL: MIC (Streptococcus agalactiae) | MIC50 (Streptococcus agalactiae) | MIC50 [7] | MIC50 (Streptococcus pneumoniae [9]) | MIC90 (Streptococcus pneumoniae [9]) | MIC [11] | MIC50 [11] | MIC50 (Enterococcus faecalis [12]) | MIC90 (Enterococcus faecalis [12]) | MIC50 (Streptococcus pneumoniae [14]) | MIC90 (Streptococcus pneumoniae [14]) | MIC50 (Streptococcus pneumoniae [15])

CCCCCCCCCC(=O)N[C@@H](Cc1c[nH]c2ccccc12)C(=O)N[C@H](CC(N)=O)C(=O)N[C@@H](CC(=O)O)C(=O)N[C@@H]1C(=O)NCC(=O)N[C@@H](CCCN)C(=O)N[C@@H](CC(=O)O)C(=O)N[C@H](C)C(=O)N[C@@H](CC(=O)O)C(=O)NCC(=O)N[C@H](CO)C(=O)N[C@@H]([C@H](C)CC(=O)O)C(=O)N[C@@H](CC(=O)c2ccccc2N)C(=O)O[C@@H]1C
2 µg/mL: MIC90 (Streptococcus agalactiae) | MIC50 (Enterococcus faecium [10]) | MIC90 (Enterococcus faecalis [12]) | MIC90 (Enterococcus faecalis [13])
0.25 µg/mL: MIC50 (Staphylococcus aureus [8]) | MIC90 (Staphylococcus aureus [8]) | MIC90 (Streptococcus pneumoniae [9]) | MIC90 (Streptococcus pneumoniae [15])
1 µg/mL: MIC90 [7] | MIC90 [11] | MIC50 (Enterococcus faecalis [13])
0.12 µg/mL: MIC90 (Streptococcus pneumoniae [14])
4 µg/mL: MIC50 (Enterococcus faecium [5]) | MIC90 (Enterococcus faecium [5]) | MIC90 (Enterococcus faecium [10])
0.5 µg/mL: MIC50 (Streptococcus agalactiae) | MIC50 (Staphylococcus aureus [6]) | MIC90 (Staphylococcus aureus [6]) | MIC [7] | MIC50 [7] | MIC [11] | MIC50 [11] | MIC50 (Enterococcus faecalis [12])
0.06 µg/mL: MIC50 (Streptococcus pneumoniae [9]) | MIC50 (Streptococcus pneumoniae [14]) | MIC50 (Streptococcus pneumoniae [15])

Cc1ncc([N+](=O)[O-])n1CCO [METRONIDAZOLE]
0.5 µg/mL: MIC90 (Clostridioides difficile)
0.12 µg/mL: MIC50 (Clostridioides difficile)

CN[C@H](CC(C)C)C(=O)N[C@H]1C(=O)N[C@@H](CC(N)=O)C(=O)N[C@H]2C(=O)N[C@H]3C(=O)N[C@H](C(=O)N[C@H](C(=O)O)c4cc(O)cc(O)c4-c4cc3ccc4O)[C@H](O)c3ccc(c(Cl)c3)Oc3cc2cc(c3O[C@@H]2O[C@H](CO)[C@@H](O)[C@H](O)[C@H]2O[C@H]2C[C@](C)(N)[C@H](O)[C@H](C)O2)Oc2ccc(cc2Cl)[C@H]1O [VANCOMYCIN]
> 64 µg/mL: MIC50 (Enterococcus faecium [10]) | MIC90 (Enterococcus faecium [10]) | MIC (Enterococcus faecalis [12]) | MIC50 (Enterococcus faecalis [12]) | MIC90 (Enterococcus faecalis [12])
2 µg/mL: MIC90 [7] | MIC50 [11] | MIC90 [11] | MIC90 (Enterococcus faecalis [13])
0.5 µg/mL: MIC50 (Enterococcus faecium [5]) | MIC50 (Staphylococcus aureus [6]) | MIC50 (Staphylococcus aureus [8])
1 µg/mL: MIC50 (Streptococcus agalactiae) | MIC90 (Streptococcus agalactiae) | MIC90 (Enterococcus faecium [5]) | MIC90 (Staphylococcus aureus [6]) | MIC90 (Staphylococcus aureus [8]) | MIC50 (Enterococcus faecalis [13])
0.25 µg/mL: MIC (Streptococcus pneumoniae [9]) | MIC50 (Streptococcus pneumoniae [9]) | MIC90 (Streptococcus pneumoniae [9]) | MIC (Streptococcus pneumoniae [14]) | MIC50 (Streptococcus pneumoniae [14]) | MIC90 (Streptococcus pneumoniae [14]) | MIC50 (Streptococcus pneumoniae [15]) | MIC90 (Streptococcus pneumoniae [15])

O=C(O)c1cn(C2CC2)c2cc(N3CCNCC3)c(F)cc2c1=O [CIPROFLOXACIN]
> 2 µg/mL: MIC90 (Acinetobacter baumannii [3])
0.25 µg/mL: MIC50 (Acinetobacter baumannii [3])
2 µg/mL: MIC50 (Acinetobacter baumannii [1]) | MIC50 (Escherichia coli) | MIC50 (Proteus mirabilis) | MIC50 (Burkholderia cepacia) | MIC90 (Burkholderia cepacia)
4 µg/mL: MIC90 (Acinetobacter baumannii [1]) | MIC90 (Escherichia coli)
> 8 µg/mL: MIC (Pseudomonas aeruginosa) | MIC50 (Pseudomonas aeruginosa) | MIC90 (Pseudomonas aeruginosa) | MIC90 (Proteus mirabilis) | MIC50 (Klebsiella pneumoniae [4]) | MIC90 (Klebsiella pneumoniae [4])
> 32 µg/mL: MIC50 (Klebsiella pneumoniae [2]) | MIC90 (Klebsiella pneumoniae [2])

CCC[C@@H]1C[C@@H](C(=O)N[C@@H]([C@H]2O[C@H](SC)[C@H](O)[C@@H](O)[C@H]2O)[C@H](C)Cl)N(C)C1 [CLINDAMYCIN]
4 µg/mL: MIC50 (Clostridioides difficile)
> 8 µg/mL: MIC90 (Clostridioides difficile)

CO/N=C(\C(=O)N[C@@H]1C(=O)N2C(C(=O)O)=C(COC(C)=O)CS[C@H]12)c1csc(N)n1 [CEFOTAXIME]
1 µg/mL: MIC50 (Haemophilus influenzae)
> 4 µg/mL: MIC90 (Haemophilus influenzae)

C[C@@H](O)[C@H]1C(=O)N2C(C(=O)O)=C(SCCNC=N)C[C@H]12 [IMIPENEM ANHYDROUS]
> 32 µg/mL: MIC90 (Acinetobacter baumannii [3])
0.05 µg/mL: MIC (Pseudomonas aeruginosa)
< 0.008 µg/mL: MIC (Streptococcus pneumoniae [15]) | MIC50 (Streptococcus pneumoniae [15]) | MIC90 (Streptococcus pneumoniae [15])
> 8 µg/mL: MIC50 (Enterococcus faecium [5]) | MIC90 (Enterococcus faecium [5]) | MIC90 (Pseudomonas aeruginosa) | MIC90 [11] | MIC90 (Burkholderia cepacia) | MIC90 (Serratia marcescens)
1 µg/mL: MIC50 (Staphylococcus aureus [8]) | MIC50 (Pseudomonas aeruginosa) | MIC90 (Klebsiella pneumoniae [2]) | MIC50 (Enterococcus faecalis [13]) | MIC90 (Streptococcus pneumoniae [14]) | MIC90 (Klebsiella pneumoniae [4])
0.06 µg/mL: MIC (Streptococcus agalactiae) | MIC50 (Streptococcus agalactiae) | MIC90 (Streptococcus agalactiae)
8 µg/mL: MIC90 (Staphylococcus aureus [8]) | MIC (Enterococcus faecium [10]) | MIC50 (Enterococcus faecium [10]) | MIC90 (Enterococcus faecium [10]) | MIC50 [11] | MIC90 (Proteus mirabilis) | MIC90 (Clostridioides difficile)
0.25 µg/mL: MIC90 (Streptococcus pneumoniae [9]) | MIC50 (Escherichia coli) | MIC90 (Escherichia coli) | MIC50 (Streptococcus pneumoniae [14]) | MIC50 (Klebsiella pneumoniae [4])
0.03 µg/mL: MIC90 (Staphylococcus aureus [6]) | MIC50 (Streptococcus pneumoniae [9])
0.015 µg/mL: MIC50 (Staphylococcus aureus [6]) | MIC [7] | MIC50 [7] | MIC90 [7]
0.12 µg/mL: MIC50 (Klebsiella pneumoniae [2])
2 µg/mL: MIC50 (Enterococcus faecalis [12]) | MIC90 (Enterococcus faecalis [12])
4 µg/mL: MIC50 (Acinetobacter baumannii [1]) | MIC50 (Proteus mirabilis) | MIC (Burkholderia cepacia) | MIC50 (Burkholderia cepacia) | MIC50 (Serratia marcescens) | MIC90 (Enterococcus faecalis [13]) | MIC50 (Clostridioides difficile)

GENTAMICIN
2 µg/mL: MIC50 (Pseudomonas aeruginosa) | MIC90 (Klebsiella pneumoniae [2])
8 µg/mL: MIC90 (Proteus mirabilis)
> 32 µg/mL: MIC90 (Pseudomonas aeruginosa)
0.25 µg/mL: MIC50 (Klebsiella pneumoniae [4])
> 8 µg/mL: MIC90 (Burkholderia cepacia) | MIC90 (Acinetobacter baumannii [3])
4 µg/mL: MIC90 (Acinetobacter baumannii [1]) | MIC50 (Serratia marcescens) | MIC90 (Serratia marcescens)
0.06 µg/mL: MIC50 (Acinetobacter baumannii [3])
1 µg/mL: MIC50 (Escherichia coli) | MIC90 (Escherichia coli) | MIC50 (Proteus mirabilis) | MIC90 (Klebsiella pneumoniae [4])
0.5 µg/mL: MIC50 (Acinetobacter baumannii [1]) | MIC50 (Burkholderia cepacia) | MIC50 (Klebsiella pneumoniae [2])
